According to ChEMBL document CHEMBL5104138, “Discovery of pyridyl urea sulfonamide inhibitors of NaV1.7” (Bioorg Med Chem Lett, 2022):
pIC50: −log10 of the molar value.

Tests used:
Cytochrome P450 3A4 [1] = molecular target: T1, Cytochrome P450 3A4 (Homo sapiens, UniProt P08684); assay: Time dependent inhibition of CYP3A4 in human liver microsomes using midazolam as substrate incubated for 30 mins; type: ADME, Microsome
Cytochrome P450 3A4 [2] = molecular target: T1, Cytochrome P450 3A4; assay: Time dependent inhibition of CYP3A4 in human liver microsomes using midazolam as substrate preincubated for 30 mins followed by substrate addition; type: ADME, Microsome
[3] = molecular target: T2, Sodium channel protein type 9 subunit alpha (Homo sapiens, UniProt Q15858); assay: Inhibition of human Nav1.7 by PatchXpress assay
[4] = Passive permeability of compound; type: ADME; conditions: not told; read-out: permeability
[5] = Clearance in rat at 0.5 mg/kg, iv; conditions: in vivo
Cytochrome P450 2C9 = Cytochrome P450 2C9 (Homo sapiens, UniProt P11712); assay: Inhibition of CYP2C9 (unknown origin) using diclofenac as substrate; type: ADME
[6] = Intrinsic clearance in rat liver microsomes assessed as loss of parent compound incubated for 30 mins; type: ADME, Microsome; conditions: read-out: CLH
[7] = Lipophilicity, logD of compound at pH 7.4; type: physicochemical; conditions: buffer
[8] = rat, in vivo, iv, 0.5 mg/kg
Description: Unbound clearance in rat at 0.5 mg/kg, iv

[9] = molecular target: T2, Sodium channel protein type 9 subunit alpha; assay: Inhibition of human Nav1.7 at 1 uM by PatchXpress assay relative to control
Target sequence in this assay (Q15858 whole entry, looked up): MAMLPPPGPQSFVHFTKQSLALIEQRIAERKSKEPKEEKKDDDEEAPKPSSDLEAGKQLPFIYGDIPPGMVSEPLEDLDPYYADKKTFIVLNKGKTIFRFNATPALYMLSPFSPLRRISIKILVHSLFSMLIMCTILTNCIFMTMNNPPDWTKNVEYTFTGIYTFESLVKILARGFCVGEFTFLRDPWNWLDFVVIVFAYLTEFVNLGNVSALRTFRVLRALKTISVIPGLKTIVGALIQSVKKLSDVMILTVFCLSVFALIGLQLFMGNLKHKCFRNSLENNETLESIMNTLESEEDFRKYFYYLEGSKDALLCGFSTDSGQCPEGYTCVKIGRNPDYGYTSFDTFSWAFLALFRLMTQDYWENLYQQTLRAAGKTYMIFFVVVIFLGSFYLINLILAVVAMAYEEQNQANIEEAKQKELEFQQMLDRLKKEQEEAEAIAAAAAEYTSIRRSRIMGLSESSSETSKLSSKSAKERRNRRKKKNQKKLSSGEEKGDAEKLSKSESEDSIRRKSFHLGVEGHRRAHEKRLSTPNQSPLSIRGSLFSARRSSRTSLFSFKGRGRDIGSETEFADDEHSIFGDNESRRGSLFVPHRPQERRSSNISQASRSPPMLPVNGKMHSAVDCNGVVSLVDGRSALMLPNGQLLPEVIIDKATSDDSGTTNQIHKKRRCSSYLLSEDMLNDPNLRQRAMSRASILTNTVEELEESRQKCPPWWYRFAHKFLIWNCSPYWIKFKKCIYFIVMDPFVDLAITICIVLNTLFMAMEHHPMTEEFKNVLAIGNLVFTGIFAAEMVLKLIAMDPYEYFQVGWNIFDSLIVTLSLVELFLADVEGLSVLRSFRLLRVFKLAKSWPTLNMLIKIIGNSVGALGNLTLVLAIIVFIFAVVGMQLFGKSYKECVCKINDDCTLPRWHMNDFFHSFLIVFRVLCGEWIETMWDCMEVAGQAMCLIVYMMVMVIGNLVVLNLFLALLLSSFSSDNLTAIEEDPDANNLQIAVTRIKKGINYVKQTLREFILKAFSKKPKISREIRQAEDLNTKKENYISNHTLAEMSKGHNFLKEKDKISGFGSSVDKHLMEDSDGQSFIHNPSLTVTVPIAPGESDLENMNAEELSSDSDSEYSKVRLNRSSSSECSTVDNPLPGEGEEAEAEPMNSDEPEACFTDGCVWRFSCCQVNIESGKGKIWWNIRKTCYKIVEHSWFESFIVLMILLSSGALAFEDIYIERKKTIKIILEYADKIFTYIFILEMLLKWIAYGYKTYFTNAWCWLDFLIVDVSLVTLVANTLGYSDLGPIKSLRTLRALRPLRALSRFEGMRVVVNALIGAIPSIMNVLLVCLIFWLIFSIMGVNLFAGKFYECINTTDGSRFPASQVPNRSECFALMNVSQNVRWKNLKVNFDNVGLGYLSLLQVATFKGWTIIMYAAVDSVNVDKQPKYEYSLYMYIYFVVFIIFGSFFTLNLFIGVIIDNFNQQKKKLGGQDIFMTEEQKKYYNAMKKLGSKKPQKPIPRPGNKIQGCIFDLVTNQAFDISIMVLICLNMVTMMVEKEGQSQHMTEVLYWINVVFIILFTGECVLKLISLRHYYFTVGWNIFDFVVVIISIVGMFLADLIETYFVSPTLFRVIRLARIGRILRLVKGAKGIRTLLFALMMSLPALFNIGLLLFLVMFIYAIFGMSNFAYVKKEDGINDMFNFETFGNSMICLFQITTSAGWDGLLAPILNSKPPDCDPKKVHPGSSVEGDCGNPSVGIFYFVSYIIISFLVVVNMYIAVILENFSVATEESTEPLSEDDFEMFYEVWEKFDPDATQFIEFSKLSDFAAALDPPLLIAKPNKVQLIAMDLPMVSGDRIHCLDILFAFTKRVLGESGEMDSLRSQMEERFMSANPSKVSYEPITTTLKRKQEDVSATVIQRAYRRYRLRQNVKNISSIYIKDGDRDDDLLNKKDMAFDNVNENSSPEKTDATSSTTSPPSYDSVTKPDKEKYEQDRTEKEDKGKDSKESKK

Mus musculus [10] = assay: Antinociceptive activity in capsaicin-induced licking mouse model assessed as reduction in time spent on licking at 3 mg/kg, po relative to control; type: functional; design: scale not given: the % may be the effect or the level left
Mus musculus [11] = assay: Antinociceptive activity in UV burn-induced thermal hyperalgesia mouse model assessed as reduction in latency time at 30 mg/kg, po relative to control; type: functional; design: scale not given: the % may be the effect or the level left

T1 sequence (P08684 whole entry): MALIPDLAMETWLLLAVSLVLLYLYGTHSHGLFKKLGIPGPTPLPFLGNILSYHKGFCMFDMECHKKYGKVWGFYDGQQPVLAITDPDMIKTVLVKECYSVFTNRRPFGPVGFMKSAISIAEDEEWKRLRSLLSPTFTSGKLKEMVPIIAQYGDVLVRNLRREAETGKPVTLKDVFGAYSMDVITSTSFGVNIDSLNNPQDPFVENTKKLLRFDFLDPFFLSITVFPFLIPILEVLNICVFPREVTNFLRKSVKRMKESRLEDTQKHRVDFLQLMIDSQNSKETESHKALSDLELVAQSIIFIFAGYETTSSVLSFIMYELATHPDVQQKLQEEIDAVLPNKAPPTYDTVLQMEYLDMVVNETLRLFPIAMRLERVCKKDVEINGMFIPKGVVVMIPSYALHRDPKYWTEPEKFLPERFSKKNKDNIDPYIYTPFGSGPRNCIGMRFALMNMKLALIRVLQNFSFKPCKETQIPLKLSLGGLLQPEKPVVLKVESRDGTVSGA
Cytochrome P450 2C9, sequence (P11712 whole entry): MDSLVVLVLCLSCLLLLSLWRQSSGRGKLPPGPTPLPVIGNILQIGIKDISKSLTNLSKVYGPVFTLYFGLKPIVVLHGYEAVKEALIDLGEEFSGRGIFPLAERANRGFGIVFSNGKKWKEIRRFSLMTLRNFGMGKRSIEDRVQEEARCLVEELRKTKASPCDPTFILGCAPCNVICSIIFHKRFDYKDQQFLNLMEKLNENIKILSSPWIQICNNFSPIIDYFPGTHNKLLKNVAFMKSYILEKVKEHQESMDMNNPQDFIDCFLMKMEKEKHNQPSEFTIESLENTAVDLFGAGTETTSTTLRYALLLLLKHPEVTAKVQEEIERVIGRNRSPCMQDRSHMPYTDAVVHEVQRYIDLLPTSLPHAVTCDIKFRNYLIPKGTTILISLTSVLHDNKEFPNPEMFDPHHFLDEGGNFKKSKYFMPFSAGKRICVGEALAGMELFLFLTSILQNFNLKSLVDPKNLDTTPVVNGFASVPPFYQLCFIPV

Structure (SMILES)	pIC50 (Cytochrome P450 3A4 [1])	pIC50 (Cytochrome P450 3A4 [2])	pIC50 [3]	clearance [5]	CL free [8]	IC50 [3]	other results
CNC(=O)N(c1ccc(S(=O)(=O)Nc2ccon2)cn1)c1cc(Cl)c(-c2cccc(C(F)(F)F)c2)cc1OC	5.30	< 4.30	7.77				
COc1cc(-c2cccc(C(F)(F)F)c2)c(Cl)cc1N(C(N)=O)c1ccc(S(=O)(=O)Nc2ccon2)cn1			8.10	5.3 L/h/kg			Papp [4]: < 15 nm/s
CNC(=O)N(c1ccc(S(=O)(=O)Nc2ccon2)cn1)c1ccc(-c2ccc(Cl)c(C)c2)cc1OC	< 4.30	< 4.30	7.06	0.88 L/h/kg	368 L/h/kg		pIC50 (Cytochrome P450 2C9): 5.48; microsomal CLint [6]: 29 µL/min/mg; logD [7]: 0.8
COc1cc(-c2ccc(Cl)c(C)c2)ccc1N(C(=O)NC(C)C)c1ccc(S(=O)(=O)Nc2ccon2)cn1							inhibition [9]: 3.9%
CN1CC[C@]23c4c5ccc(O)c4O[C@H]2[C@@H](O)C=C[C@H]3[C@H]1C5 [MORPHINE]							Activity (Mus musculus [10]): 98%
CNC(=O)N(c1ccc(S(=O)(=O)Nc2ncccn2)cn1)c1cc(Cl)c(-c2ccc(F)c(OC(F)(F)F)c2)cc1OC	4.96	< 4.30					logD [7]: 1.6
CNC(=O)N(c1ccc(S(=O)(=O)Nc2ccon2)cn1)c1cc(F)c(-c2ccc(F)c(OC(F)(F)F)c2)cc1OC	< 4.30	< 4.30		2.9 L/h/kg	424 L/h/kg		
CNC(=O)C(c1ccc(S(=O)(=O)Nc2ccon2)cn1)c1ccc(-c2ccc(Cl)c(C)c2)cc1OC (configuration not stated)							inhibition [9]: 4.9%
COc1ccc2cc([C@H](C)C(=O)O)ccc2c1 [NAPROXEN]							Activity (Mus musculus [11]): 87%
CNC(=O)N(c1ccc(S(=O)(=O)Nc2ccon2)cc1)c1ccc(-c2ccc(Cl)c(C)c2)cc1OC			5.42	1.33 L/h/kg	180 L/h/kg		Papp [4]: 15 nm/s
CNC(=O)N(c1ccc(S(=O)(=O)Nc2ccon2)cn1)c1cc(Cl)c(-c2cc(OC)cc(C(F)(F)F)c2)cc1OC	4.77	< 4.30					
COc1cc(-c2ccc(Cl)c(C#N)c2)c(F)cc1-n1c(=O)ccc2cc(S(=O)(=O)Nc3ccon3)ccc21			8.10	2.1 L/h/kg	607 L/h/kg		
COc1cc(-c2ccc(Cl)c(C)c2)ccc1-n1c(=O)ccc2cc(S(=O)(=O)Nc3ccon3)ccc21	4.49	< 4.30		0.78 L/h/kg	132 L/h/kg	5 µM	microsomal CLint [6]: 28 µL/min/mg; logD [7]: 2.5; pIC50 ([3]; record 2): 8.00
